pEC50: −log10 of the molar value. Where “and” joins values, the source holds several entries; their conditions need not be identical. Equal values may be shown once.
These compounds were tested on LXRα and/or LXRβ (assay: LXR/LXRE co-transfection assay (luciferase reporter, CV-1 cells)). Details: IC50 or EC50 for LXR (LXRα and/or LXRβ, not distinguished), tested as described in Example 109, CV-1 cells.
Type: cell-based, human
How it was run: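 Luciferase readout after 20 h compound exposure at 37 °C in CV-1 cells transiently expressing human LXRα or LXRβ with RXRα and an LXRE-driven reporter. Dose-response over 8 points at ½-log spacing, 4 wells each, fitted for EC50/IC50; values average ≥3 independent experiments, efficacy as % of high control.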

Row | pEC50 | Structure (SMILES)
1 | > 6.00 | CS(=O)(=O)c1cccc(-c2ccc(-c3cc(C(F)(F)F)nn3CCN3CCOCC3)cc2)c1 [Example 1222, 4-(2-{5-[3′-(methylsulfonyl)phenyl-4-yl]-3-(trifluoromethyl)-1H-pyrazol-1-yl}ethyl)morpholine]
2 | > 6.00 | Cc1c(F)cccc1-n1nc(C(C)(C)O)cc1-c1ccc(-c2cccc(S(C)(=O)=O)c2)s1 [Example 1361, 2-[1-(3-fluoro-2-methylphenyl)-5-{5-[3-(methylsulfonyl)phenyl]-2-thienyl}-1H-pyrazol-3-yl]propan-2-ol]
3 | > 6.00 | CN1CCC(N(C)C(=O)c2cc(-c3ccc(-c4cccc(S(C)(=O)=O)c4)s3)n(-c3ccccc3Cl)n2)CC1 [Example 716, 1-(2-chlorophenyl)-N-methyl-N-(1-methylpiperidin-4-yl)-5-{5-[3-(methylsulfonyl)phenyl]-2-thienyl}-1H-pyrazole-3-carboxamide]
4 | > 6.00 | CC(C)S(=O)(=O)c1cccc(-c2ccc(-c3cc(C(F)(F)F)nn3-c3ncccc3C(F)(F)F)s2)c1 [Example 1169, 2-[5-(5-{3-[(1-methylethyl)sulfonyl)phenyl}-2-thienyl)-3-(trifluoromethyl)-1H-pyrazol-1-yl]-3-(trifluoromethyl)pyridine]
5 | > 6.00 | CC(C)(c1cc(-c2ccc(-c3cccc(S(C)(=O)=O)c3)s2)n(-c2ccccc2Cl)n1)N1CCOCC1 [Example 1159, 4-{1-[1-(2-chlorophenyl)-5-{5-[3-(methylsulfonyl)phenyl]-2-thienyl}-1H-pyrazol-3-yl]-1-methylethyl}morpholine]
6 | > 6.00 | CS(=O)(=O)c1cccc(Oc2ccc(-c3cc(C(F)(F)F)nn3-c3ccccc3Cl)cc2)c1 [Example 68, 1-(2-chlorophenyl)-5-(4-{[3-(methylsulfonyl)phenyl]oxy}phenyl)-3-(trifluoromethyl)-1H-pyrazole]
7 | 5.00 to 6.00 | CC(C)(O)c1cc(-c2cccc(Cl)c2Cl)n(-c2ccc(-c3cccc(S(C)(=O)=O)c3)cc2)n1 [Example 106, 2-(5-(2,3-dichlorophenyl)-1-(3′-(methylsulfonyl)biphenyl-4-yl)-1H-pyrazol-3-yl)propan-2-ol]
8 | > 6.00 | CC(C)(O)c1cc(-c2cccc(Cl)c2Cl)n(-c2ccc(-c3cccc(S(C)(=O)=O)c3)cc2Cl)n1 [Example 135, 2-(1-(3-chloro-3′-(methylsulfonyl)biphenyl-4-yl)-5-(2,3-dichlorophenyl)-1H-pyrazol-3-yl)propan-2-ol]
9 | > 6.00 | COC(C)(C)c1cc(-c2ccc(-c3cccc(S(C)(=O)=O)c3)s2)n(-c2ccccc2Cl)n1 [Example 134, 1-(2-chlorophenyl)-3-(2-methoxypropan-2-yl)-5-(5-(3-(methylsulfonyl)phenyl)thiophen-2-yl)-1H-pyrazole]
10 | > 6.00 | CC(C)(O)c1nn(-c2ccccc2F)c(-c2ccc(-c3cccc(S(C)(=O)=O)c3)s2)c1Cl [Example 23]
11 | > 6.00 | COC(=O)c1cc(-c2ccc(-c3cccc(S(C)(=O)=O)c3)cn2)n(-c2ccccc2Cl)n1 [Example 118, methyl 1-(2-chlorophenyl)-5-(5-(3-(methylsulfonyl)phenyl)pyridin-2-yl)-1H-pyrazole-3-carboxylate]
12 | > 6.00 | CCN(CC)CCN(CC)C(=O)c1cc(-c2ccc(-c3cccc(S(C)(=O)=O)c3)s2)n(-c2ccccc2Cl)n1 [Example 587, 1-(2-chlorophenyl)-N-[2-(diethylamino)ethyl]-N-ethyl-5-{5-[3-(methylsulfonyl)phenyl]-2-thienyl}-1H-pyrazole-3-carboxamide]
13 | 5.00 to 6.00 | CC(C)(O)c1cc(-c2ccc(-c3cccc(S(C)(=O)=O)c3)s2)n(-c2cccc(F)c2)n1 [Example 1258, 2-[1-(3-fluorophenyl)-5-{5-[3-(methylsulfonyl)phenyl]-2-thienyl}-1H-pyrazol-3-yl]propan-2-ol]
14 | 5.00 to 6.00 | CS(=O)(=O)c1cccc(-c2ccc(-c3cc(C(=O)Nc4cccc(C(F)(F)F)c4)nn3-c3ccccc3Cl)s2)c1 [Example 1133, 1-(2-chlorophenyl)-5-{5-[3-(methylsulfonyl)phenyl]-2-thienyl}-N-[3-(trifluoromethyl)phenyl]-1H-pyrazole-3-carboxamide]
15 | > 6.00 | CC(C)(O)c1cc(-c2ccccc2C(F)(F)F)n(-c2ccc(-c3cccc(S(C)(=O)=O)c3)cc2Cl)n1 [Example 140, 2-(1-(3-chloro-3′-(methylsulfonyl)biphenyl-4-yl)-5-(2-(trifluoromethyl)phenyl)-1H-pyrazol-3-yl)propan-2-ol]
16 | 5.00 to 6.00 | COC(=O)CNC(=O)c1ccc(-c2cc(C(F)(F)F)nn2-c2ccccc2Cl)cc1 [Example 1354, methyl N-({4-[1-(2-chlorophenyl)-3-(trifluoromethyl)-1H-pyrazol-5-yl]phenyl}carbonyl)glycinate]
17 | 5.00 to 6.00 | O=C(c1ccc(-c2cc(C(F)(F)F)nn2-c2ccccc2Cl)cc1)N1CCCC1CO (stereo not drawn) [Example 1000, [1-({4-[1-(2-chlorophenyl)-3-(trifluoromethyl)-1H-pyrazol-5-yl]phenyl}carbonyl)pyrrolidin-2-yl]methanol]
18 | > 6.00 | CC(C)(O)c1cc(-c2ccc(-c3cccc(S(C)(=O)=O)c3)s2)n(-c2cccc(Cl)c2Cl)n1 [Example 1281, 2-[1-(2,3-dichlorophenyl)-5-{5-[3-(methylsulfonyl)phenyl]-2-thienyl}-1H-pyrazol-3-yl]propan-2-ol]
19 | 5.00 to 6.00 | O=C(NC1CCSC1=O)c1ccc(-c2cc(C(F)(F)F)nn2-c2ccccc2Cl)cc1 (stereo not drawn) [Example 1355, 4-[1-(2-chlorophenyl)-3-(trifluoromethyl)-1H-pyrazol-5-yl]-N-(2-oxotetrahydro-3-thienyl)benzamide]
20 | > 6.00 | CC(C)(O)c1nn(-c2ccc(-c3cccc(S(C)(=O)=O)c3)cc2Cl)c(-c2cccc(F)c2F)c1Cl [Example 1427, 2-(4-chloro-1-(3-chloro-3′-(methylsulfonyl)biphenyl-4-yl)-5-(2,3-difluorophenyl)-1H-pyrazol-3-yl)propan-2-ol]
21 | > 6.00 | CS(=O)(=O)c1cccc(-c2ccc(-c3cc(C(=O)NCC(F)(F)F)nn3-c3ccccc3C(F)(F)F)s2)c1 [Example 1195, 5-{5-[3-(methylsulfonyl)phenyl]-2-thienyl}-N-(2,2,2-trifluoroethyl)-1-[2-(trifluoromethyl)phenyl]-1H-pyrazole-3-carboxamide]
22 | 5.00 to 6.00 | CN(Cc1cccnc1)C(=O)c1cc(-c2ccc(-c3cccc(S(C)(=O)=O)c3)s2)n(-c2ccccc2Cl)n1 [Example 1271, 1-(2-chlorophenyl)-N-methyl-5-{5-[3-(methylsulfonyl)phenyl]-2-thienyl}-N-(pyridin-3-ylmethyl)-1H-pyrazole-3-carboxamide]
23 | 5.00 to 6.00 and > 6.00 | CS(=O)(=O)c1cccc(-c2ccc(-c3cc(C(F)(F)F)nn3-c3ccccc3Cl)cc2C(=O)O)c1 [Example 1139, 4-[1-(2-chlorophenyl)-3-(trifluoromethyl)-1H-pyrazol-5-yl]-3′-(methylsulfonyl)biphenyl-2-carboxylic acid]
24 | > 6.00 | CCCc1ccccc1-n1nc(C(C)(C)O)cc1-c1ccc(-c2cccc(S(C)(=O)=O)c2)s1 [Example 1330, 2-[5-{5-[3-(methylsulfonyl)phenyl]-2-thienyl}-1-(2-propylphenyl)-1H-pyrazol-3-yl]propan-2-ol]
25 | > 6.00 | CC(C)(O)c1cc(-c2ccc(-c3cccc(S(C)(=O)=O)c3)s2)n(-c2ccccc2OC(F)(F)F)n1 [Example 1327, 2-(5-{5-[3-(methylsulfonyl)phenyl]-2-thienyl}-1-(2-[(trifluoromethyl)oxy]phenyl}-1H-pyrazol-3-yl)propan-2-ol]
26 | > 6.00 | CCC(O)(CC)c1cc(-c2ccc(-c3cccc(S(C)(=O)=O)c3)s2)n(-c2ccccc2Cl)n1 [Example 1174, 3-[1-(2-chlorophenyl)-5-{5-[3-(methylsulfonyl)phenyl]-2-thienyl}-1H-pyrazol-3-yl]pentan-3-ol]
27 | > 6.00 | CC(C)(O)c1cc(-c2ccccc2Cl)n(-c2ccc(-c3cccc(S(C)(=O)=O)c3)cc2Cl)n1 [Example 114, 2-(1-(3-chloro-3′-(methylsulfonyl)biphenyl-4-yl)-5-(2-chlorophenyl)-1H-pyrazol-3-yl)propan-2-ol]
28 | 5.00 to 6.00 | CC(C)(O)c1cc(-c2ccc(-c3cccc(S(C)(=O)=O)c3)s2)n(-c2ccncc2)n1 [Example 1343, 2-(5-{5-[3-(methylsulfonyl)phenyl]-2-thienyl}-1-pyridin-4-yl-1H-pyrazol-3-yl)propan-2-ol]
29 | > 6.00 | CC(C)(O)c1cc(-c2cccc(F)c2F)n(-c2ccc(-c3cccc(S(C)(=O)=O)c3)cc2Cl)n1 [Example 131, 2-(1-(3-chloro-3′-(methylsulfonyl)biphenyl-4-yl)-5-(2,3-difluorophenyl)-1H-pyrazol-3-yl)propan-2-ol]

Row | Structure (SMILES) | pEC50
30 | FC(F)(F)c1cc(-c2cccc(OCCN3CCOCC3)c2)n(-c2ccccc2Cl)n1 [Example 67, 4-(2-(3-(1-(2-chlorophenyl)-3-(trifluoromethyl)-1H-pyrazol-5-yl)phenoxy)-ethyl)morpholine] | 5.00 to 6.00

Reference: patent publication US8703805B2 (Exelixis Patent Company LLC, priority 2005, dated 2014)
